{"source": "patent US20050222383A1", "about": "“Prostasin substrates and inhibitors” (IRM LLC, priority 2004, published 2005)", "molecules": {"B1": {"name": "α1-antichymotrypsin (protein, UniProt P01011 24-423, looked up)", "Alpha-1-antichymotrypsin": "HPNSPLDEENLTQENQDRGTHVDLGLASANVDFAFSLYKQLVLKAPDKNVIFSPLSISTALAFLSLGAHNTTLTEILKGLKFNLTETSEAEIHQSFQHLLRTLNQSSDELQLSMGNAMFVKEQLSLLDRFTEDAKRLYGSEAFATDFQDSAAAKKLINDYVKNGTRGKITDLIKDLDSQTMMVLVNYIFFKAKWEMPFDPQDTHQSRFYLSKKKWVMVPMMSLHHLTIPYFRDEELSCTVVELKYTGNASALFILPDQDKMEEVEAMLLPETLKRWRDSLEFREIGELYLPKFSISRDYNLNDILLQLGIEEAFTSKADLSGITGARNLAVSQVVHKAVLDVFEEGTEASAATAVKITLLSALVETRTIVRFNRPFLMIIVPTDTQNIFFMSKVTNPKQA"}}, "key": {"prostasin [1]": {"biological_target": "T1, prostasin (Homo sapiens, UniProt Q16651)", "T1 construct": "eliminate the N-terminal signal peptide domain and light chain and the C-terminal GPI signal domain; honeybee melittin signal peptide (21 aa) (N); made in house; host or cells: Sf9 insect cells, baculovirus (Bac-to-Bac, pFastBac1)", "T1 sequence (Q16651 45-322 limits assumed)": "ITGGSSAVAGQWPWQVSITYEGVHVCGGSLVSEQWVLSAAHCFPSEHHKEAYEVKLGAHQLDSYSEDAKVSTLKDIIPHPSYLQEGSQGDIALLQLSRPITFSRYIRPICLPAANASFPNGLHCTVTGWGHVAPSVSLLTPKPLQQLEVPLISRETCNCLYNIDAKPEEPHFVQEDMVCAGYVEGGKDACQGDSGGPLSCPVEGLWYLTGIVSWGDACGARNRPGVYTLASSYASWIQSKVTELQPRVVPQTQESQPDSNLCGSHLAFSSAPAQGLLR", "assay": "Cation/anion inhibition of prostasin activity against Ac-KHYR-acc", "assay_type": "biochemical", "conditions": "read-out: Inhibition constants"}, "prostasin [2]": {"biological_target": "T1, prostasin", "assay": "Assays with transition metals, prostasin activity with Ac-KHYR-acmc", "assay_type": "biochemical", "conditions": "for enhancement effect: increase of enzymatic activity: Ac-KHYR-acmc substrate, sub inhibitory metal ion concentrations; for increases in IC50 values: assays with KHYR substrate", "procedure": "(§1) Proteolytic activity of the purified prostasin was monitored by measuring the accumulation of the fluorophore 7-amino-3-carbamoylmethyl-4-methylcoumarin (acmc) or 7-amino-4-carbamoylmethylcoumarin (acc) produced by the cleavage of the tetrapeptide substrate Ac-KHYR-acmc, Ac-KHYR-acc or Ac-PRLR-acmc in assay buffer (50 mM Tris-Cl pH 9.0, 0.25% CHAPS; 10 mM CHES pH 9.0 (37° C.), 0.25% CHAPS; or 10 mM Hepes pH 7.4 (37° C.), 0.25% CHAPS) at 37° C. Assays were run in 96 or 384-well black microtiter plates. Data was collected with a Gemini XS plate reader (Molecular Devices) at λex=380 nm and λem=450 nm."}, "prostasin [3]": {"biological_target": "T1, prostasin", "assay": "Prostasin assayed in tetrapeptide substrate libraries with a set concentration of sodium, calcium or zinc", "assay_type": "biochemical", "conditions": "for effect on substrate specificity profile / decrease in activity across the libraries: tetrapeptide substrate libraries; for decrease in activity across the libraries: set concentration of ion", "procedure": "P1-P4-Fluorogenic substrate libraries were synthesized as previously described (Wang et al, J. Biol. Chem., 278: 15800-15808, 2003). Prostasin was diluted in assay buffer and added to the library plates. In the two-position fixed tetrapeptide substrate library, the final substrate concentration was approximately 0.25 μM/substrate/well with a total of 361 substrates per well. Each variable position had one of 19 amino acids with cysteine excluded and methionine replaced by its isostere norleucine.\nFurther, prostasin was assayed in the tetrapeptide substrate libraries with a set concentration of sodium, calcium or zinc to determine the effect of each on overall substrate specificity."}, "[4]": {"tested_on": "Xenopus kidney epithelial cell line", "conditions": "exposure of the apical membrane; cited from earlier work"}, "prostasin [5]": {"biological_target": "T1, prostasin", "assay": "Inhibition assays of macromolecular inhibitors, prostasin activity against Ac-KHYR-acmc", "assay_type": "biochemical", "conditions": "Ac-KHYR-acmc substrate, Tris-CHAPS buffer; read-out: classical inhibition constants (Ki)", "procedure": "as §1\nThe inhibition constants of macromolecular inhibitors were calculated for prostasin. Prostasin activity against Ac-KHYR-acmc was measured in Tris-CHAPS buffer, as in “Enzyme Assays,” in the presence of 10 μM-170 pM aprotinin and soybean trypsin inhibitor (SBTI), 1 μM-17 pM α1-antitrypsin, and 200 nM-3.3 pM α1-antichymotrypsin. Rates were plotted in Prism (GraphPad) and classical inhibition constants (Ki) were calculated using the results of non-linear regression."}, "prostasin [6]": {"biological_target": "T1, prostasin", "assay": "Michaelis-Menten kinetics of KHYR-acmc and PRLR-acmc in the presence of zinc", "assay_type": "biochemical", "procedure": "as §1\nThe effect of zinc on the Michelis-Menten kinetics of KHYR-acmc and PRLR-acmc was measured in the presence of 20 μM zinc(II). […] The kcat of KHYR-acmc was 2.7 fold higher and the kcat of PRLR-acmc was 1.6 fold lower. These changes translated into a 30-fold increase in specificity for KHYR over PRLR in the presence of zinc."}, "[7]": {"conditions": "Ac-KHYR-acc substrate, CHES-CHAPS buffer, 37° C."}, "[8]": {"conditions": "in the presence of 20 μM zinc(II)"}}}
{"molecule": "[Ca+2].[Cl-].[Cl-]", "note": "[CaCl2]", "values": [{"measurement": "Ki", "setting": "prostasin [1]; [7]", "value": 260, "unit": "µM"}]}
{"molecule": "[Cl-].[Na+]", "note": "[NaCl]", "values": [{"measurement": "Ki", "setting": "prostasin [1]", "value": 5300, "unit": "µM"}]}
{"molecule": "[Ni+2]", "note": "[nickel]", "values": [{"measurement": "enhancement effect: increase of enzymatic activity", "setting": "prostasin [2]", "value": 1.4, "unit": "fold"}, {"measurement": "increases in IC50 values", "setting": "prostasin [2]", "value": 100, "unit": "fold"}]}
{"molecule": "[Zn+2]", "note": "[zinc]", "values": [{"measurement": "relative increase in the activity of substrates with arginine in P1 and histidine in P3", "setting": "prostasin [3]; P1-P3 library", "value": "three fold relative increase"}, {"measurement": "effect on substrate specificity profile", "setting": "prostasin [3]", "value": "did not alter the specificity profiles"}, {"measurement": "increases in IC50 values", "setting": "prostasin [2]", "value": 200, "unit": "fold"}]}
{"molecule": "[Cu+2]", "note": "[copper]", "values": [{"measurement": "increases in IC50 values", "setting": "prostasin [2]", "value": 25, "unit": "fold"}]}
{"molecule": "aprotinin", "values": [{"measurement": "transepithelial sodium transport", "setting": "[4]", "value": "reduces transepithelial sodium transport"}, {"measurement": "Ki", "setting": "prostasin [5]", "value": 0.0025, "unit": "µM"}]}
{"molecule": "Ac-KHYR-acmc", "values": [{"measurement": "decrease in the Km", "setting": "prostasin [6]; [8]", "value": 4, "unit": "fold"}, {"measurement": "kcat higher", "setting": "prostasin [6]; [8]", "value": 2.7, "unit": "fold"}, {"measurement": "increase in specificity for KHYR over PRLR", "setting": "prostasin [6]; in the presence of zinc", "value": 30, "unit": "fold"}]}
{"molecule": "[Cl-].[Cl-].[Co+2]", "note": "[CoCl2]", "values": [{"measurement": "Ki", "setting": "prostasin [1]", "value": 5, "unit": "µM"}]}
{"molecule": "[Cl-].[Li+]", "note": "[LiCl]", "values": [{"measurement": "Ki", "setting": "prostasin [1]; [7]", "value": 2400, "unit": "µM"}]}
{"molecule": "Ac-PRLR-acmc", "values": [{"measurement": "increase in the Km", "setting": "prostasin [6]; [8]", "value": 2, "unit": "fold"}, {"measurement": "kcat lower", "setting": "prostasin [6]; [8]", "value": 1.6, "unit": "fold"}]}
{"molecule": "[Co+2]", "note": "[cobalt]", "values": [{"measurement": "enhancement effect: increase of enzymatic activity", "setting": "prostasin [2]", "value": "No enhancement in activity"}, {"measurement": "increases in IC50 values", "setting": "prostasin [2]", "value": 10, "unit": "fold"}]}
{"molecule": "[Ca+2]", "note": "[calcium]", "values": [{"measurement": "effect on substrate specificity profile", "setting": "prostasin [3]", "value": "Neither sodium nor calcium changed the substrate profile"}, {"measurement": "decrease in activity across the libraries", "setting": "prostasin [3]", "value": "25-35%"}]}
{"molecule": "[I-].[Na+]", "note": "[NaI]", "values": [{"measurement": "Ki", "setting": "prostasin [1]; [7]", "value": 4500, "unit": "µM"}]}
{"molecule": "[F-].[Na+]", "note": "[NaF]", "values": [{"measurement": "Ki", "setting": "prostasin [1]; [7]", "value": 4200, "unit": "µM"}]}
{"molecule": "[Na+]", "note": "[sodium]", "values": [{"measurement": "effect on substrate specificity profile", "setting": "prostasin [3]", "value": "Neither sodium nor calcium changed the substrate profile"}, {"measurement": "decrease in activity across the libraries", "setting": "prostasin [3]", "value": "50-60%"}]}
{"molecule": "[Cl-].[Cl-].[Mg+2]", "note": "[MgCl2]", "values": [{"measurement": "Ki", "setting": "prostasin [1]; [7]", "value": 390, "unit": "µM"}]}
{"molecule": "[Cl-].[K+]", "note": "[KCl]", "values": [{"measurement": "Ki", "setting": "prostasin [1]; [7]", "value": 5800, "unit": "µM"}]}
{"molecule": "B1", "values": [{"measurement": "Ki", "setting": "prostasin [5]", "value": "> 0.2", "unit": "µM"}]}
